Measurements as given in US20020188323A1, “Methods, systems and devices for in vivo electrochemical production of therapeutic agents” (Remon Medical Technologies Ltd., priority 2001, published 2002).

How the values were obtained:
[1] = Dissociation of HClO; format: physicochemical; details: −log Ka
From the text: The dissociation constant of HClO or, in other words, the equilibrium constant of the reaction HClO→H^++ClO^−[6] is 3.7×10^−8.
Thus, the pKa of the reaction (i.e., −logka) equals 7.4. It is well known that when the pH of a solution equals the pKa of an acid dissolved therein, at all times, half of the acid molecules are dissociated. Since the blood pH value equals 7.4 half of the HClO is dissociated to H^+ and ClO^−.

[2] = tested on: cells; details: cited from earlier work
[3] = tested on: P388D1 murine macrophage-like tumor cells; details: cited from earlier work
[4] = tested on: human endothelial cells; details: cited from earlier work
[5] = tested on: human endothelial cells; assay: Effect of hypochlorite on human endothelial cells (Vissers et al.); format: cell-based
From the text: Hypochlorite and hydrogen peroxide are strong oxidants and are extensively used as antiseptic agents. Hydrogen peroxide is routinely used as an antiseptic agent in cases of external wounds. Hypochlorite is used as an antiseptic agent during, for example, dental root treatment. Both hypochlorous acid and hydrogen peroxide are well-known disinfectants. Hypochlorite is widely used for treatment of drinking water and as a bactericide. Both hypochlorite and hydrogen peroxide have cytotoxic activity at concentrations of several ppm. Vissers et al. tested the effect of hypochlorite on cells. They noticed a necrosis threshold of 20-40 nmole HClO per 1.2×10^5 cells, which translates approximately into 2 ppm concentration. Transient growth (proliferation) inhibition occurred at lower concentrations of 5 nmole, or about 0.2-0.3 ppm. See, “Hypochlorous acid causes caspase activation and apoptosis or growth arrest in human endothelial cells”, by Margret C. M. Vissers, Juliet M. Pullar and Mark B. Hampton, Biochem. J. (1999) vol. 344, pp. 443-449. Schraufenstatter et al. discuss the effect of hypochlorite on P388D1 murine macrophage-like tumor cells in mice. They show cell damage at 0.5-1 ppm hypochlorite and cell death from about 4 ppm hypochlorite and up. […]

[6] = tested on: viruses and bacteria; details: cited from earlier work

Structure (SMILES) | pKa [1] | concentration with cytotoxic activity [2] | concentration causing cell damage [3] | concentration causing cell death [3] [ppm] | necrosis threshold [4] | transient growth (proliferation) inhibition ([4]; lower concentrations than necrosis) [nmol] | transient growth (proliferation) inhibition as concentration ([5]; equivalent of 5 nmole) | necrosis threshold as concentration ([5]; translated from nmole per 1.2×10^5 cells) [ppm] | level required to kill all viruses and bacteria [6] [ppm]
OCl [hypochlorite, hypochlorous acid] | 7.4 | several | 0.5-1 ppm | ≥ 4 | 20-40 nmole HClO per 1.2×10^5 cells | 5 | 0.2-0.3 ppm | ~2 | 40
OO [hydrogen peroxide] | – | several | – | – | – | – | – | – | –
